Source: patent US20250059171A1 (Hoffmann-La Roche Inc., priority 2021, published 2025)

Tests used:
SARS-CoV-2 3CLpro = SARS-CoV-2 3CLpro (Severe acute respiratory syndrome coronavirus 2, UniProt P0DTD1); test: biochemical
HCoV-229E 3CLpro = HCoV-229E 3CLpro (Human coronavirus 229E, UniProt P0C6X1); test: HCoV-229E 3CLpro inhibition assay (FRET); format: biochemical
SARS-CoV 3CLpro = SARS-CoV 3CLpro (Severe acute respiratory syndrome coronavirus, UniProt P0C6X7); test: biochemical
MERS-CoV 3CLpro = MERS-CoV 3CLpro (Middle East respiratory syndrome-related coronavirus, UniProt K9N7C7); test: biochemical
MERS-CoV 3CLpro, sequence (K9N7C7 3248-3553): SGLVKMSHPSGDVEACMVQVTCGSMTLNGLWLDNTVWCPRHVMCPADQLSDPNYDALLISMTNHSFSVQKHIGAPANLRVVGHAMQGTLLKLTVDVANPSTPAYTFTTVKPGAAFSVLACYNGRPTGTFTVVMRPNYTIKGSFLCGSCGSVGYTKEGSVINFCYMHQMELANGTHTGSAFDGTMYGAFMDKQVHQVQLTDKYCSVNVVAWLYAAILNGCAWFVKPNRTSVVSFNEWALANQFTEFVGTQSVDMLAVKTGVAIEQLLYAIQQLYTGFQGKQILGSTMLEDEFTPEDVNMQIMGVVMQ

HCoV-229E 3CLpro, sequence (P0C6X1 2966-3267): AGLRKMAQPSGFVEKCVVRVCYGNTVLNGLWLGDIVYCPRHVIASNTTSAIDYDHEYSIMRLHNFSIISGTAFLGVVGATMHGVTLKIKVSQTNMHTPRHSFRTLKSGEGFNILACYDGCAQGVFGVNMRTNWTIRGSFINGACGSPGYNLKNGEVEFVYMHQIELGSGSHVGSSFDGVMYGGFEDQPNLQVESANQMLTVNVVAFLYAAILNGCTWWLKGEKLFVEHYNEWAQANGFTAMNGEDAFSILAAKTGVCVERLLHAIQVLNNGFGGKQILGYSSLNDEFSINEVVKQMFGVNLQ

SMILES | IC50 (SARS-CoV-2 3CLpro) [µM] | IC50 (HCoV-229E 3CLpro) [µM] | IC50 (SARS-CoV 3CLpro) [µM] | IC50 (MERS-CoV 3CLpro) [µM]
CC[C@H](C)[C@H](NC(=O)C(F)(F)C(F)(F)F)C(=O)N1C[C@H]2[C@@H]([C@H]1C(=O)NN(C[C@@H]1CCNC1=O)C(=O)[C@H](F)Cl)C2(C)C [Example 62, N-[(1S,2S)-1-[(1R,2S,5S)-2-[[[(2R)-2-chloro-2-fluoro-acetyl]-[[(3S)-2-oxopyrrolidin-3-yl]methyl]amino]carbamoyl]-6,6-dimethyl-3-azabicyclo[3.1.0]hexane-3-carbonyl]-2-methyl-butyl]-2,2,3,3,3-pentafluoro-propanamide] | 0.008 | 0.017 | 0.01 | 0.043
CC[C@H](C)[C@H](NC(=O)C(F)(F)F)C(=O)N1C[C@H]2[C@@H]([C@H]1C(=O)NN(C[C@@H]1CCNC1=O)C(=O)[C@H](F)Cl)C2(C)C [Example 63, N-[(1S,2S)-1-[(1R,2S,5S)-2-[[[(2R)-2-chloro-2-fluoro-acetyl]-[[(3S)-2-oxopyrrolidin-3-yl]methyl]amino]carbamoyl]-6,6-dimethyl-3-azabicyclo[3.1.0]hexane-3-carbonyl]-2-methyl-butyl]-2,2,2-trifluoro-acetamide] | 0.009 | 0.018 | 0.011 | 0.06
CC[C@@H](C)[C@H](NC(=O)C(F)(F)F)C(=O)N1C[C@H]2[C@@H]([C@H]1C(=O)NN(C[C@@H]1CCNC1=O)C(=O)[C@H](F)Cl)C2(C)C [Example 64, N-[(1S,2R)-1-[(1R,2S,5S)-2-[[[(2R)-2-chloro-2-fluoro-acetyl]-[[(3S)-2-oxopyrrolidin-3-yl]methyl]amino]carbamoyl]-6,6-dimethyl-3-azabicyclo[3.1.0]hexane-3-carbonyl]-2-methyl-butyl]-2,2,2-trifluoro-acetamide] | 0.01 | 0.02 | 0.012 | 0.071
CC(C)(C)C[C@H](NC(=O)C(F)(F)F)C(=O)N1C[C@H]2[C@@H]([C@H]1C(=O)NN(C[C@@H]1CCNC1=O)C(=O)[C@H](F)Cl)C2(C)C [Example 66, N-[(1S)-1-[(1R,2S,5S)-2-[[[(2R)-2-chloro-2-fluoro-acetyl]-[[(3S)-2-oxopyrrolidin-3-yl]methyl]amino]carbamoyl]-6,6-dimethyl-3-azabicyclo[3.1.0]hexane-3-carbonyl]-3,3-dimethyl-butyl]-2,2,2-trifluoro-acetamide] | 0.01 | 0.035 | 0.022 | 0.141
CC1(C)[C@@H]2[C@@H](C(=O)NN(C[C@@H]3CCNC3=O)C(=O)[C@H](F)Cl)N(C(=O)[C@H](Cc3ccncc3)NC(=O)C(F)(F)F)C[C@@H]21 [Example 67, N-[(1S)-2-[(1R,2S,5S)-2-[[[(2R)-2-chloro-2-fluoro-acetyl]-[[(3S)-2-oxopyrrolidin-3-yl]methyl]amino]carbamoyl]-6,6-dimethyl-3-azabicyclo[3.1.0]hexan-3-yl]-2-oxo-1-(4-pyridylmethyl)ethyl]-2,2,2-trifluoro-acetamide] | 0.01 | 0.028 | 0.014 | 0.084
CC1([C@H](NC(=O)C(F)(F)F)C(=O)N2C[C@H]3[C@@H]([C@H]2C(=O)NN(C[C@@H]2CCNC2=O)C(=O)[C@H](F)Cl)C3(C)C)CC1 [Example 68, N-[(1S)-2-[(1R,2S,5S)-2-[[[(2R)-2-chloro-2-fluoro-acetyl]-[[(3S)-2-oxopyrrolidin-3-yl]methyl]amino]carbamoyl]-6,6-dimethyl-3-azabicyclo[3.1.0]hexan-3-yl]-1-(1-methylcyclopropyl)-2-oxo-ethyl]-2,2,2-trifluoro-acetamide] | 0.018 | 0.023 | 0.014 | 0.081
CSCC[C@H](NC(=O)C(F)(F)F)C(=O)N1C[C@H]2[C@@H]([C@H]1C(=O)NN(C[C@@H]1CCNC1=O)C(=O)[C@H](F)Cl)C2(C)C [Example 69, N-[(1S)-1-[(1R,2S,5S)-2-[[[(2R)-2-chloro-2-fluoro-acetyl]-[[(3S)-2-oxopyrrolidin-3-yl]methyl]amino]carbamoyl]-6,6-dimethyl-3-azabicyclo[3.1.0]hexane-3-carbonyl]-3-methylsulfanyl-propyl]-2,2,2-trifluoro-acetamide] | 0.011 | 0.053 | 0.028 | 0.249
CC(C)(C)[C@H](NC(=O)C(Cl)Cl)C(=O)N1C[C@@H]2CCC[C@@H]2[C@H]1C(=O)NN(C[C@@H]1CCNC1=O)C(=O)[C@H](F)Cl [Example 70, N-[(1S)-1-[(3S,3aS,6aR)-3-[[[(2R)-2-chloro-2-fluoro-acetyl]-[[(3S)-2-oxopyrrolidin-3-yl]methyl]amino]carbamoyl]-3,3a,4,5,6,6a-hexahydro-1H-cyclopenta[c]pyrrole-2-carbonyl]-2,2-dimethyl-propyl]-2,2-dichloro-acetamide] | 0.007 | 0.03 | 0.016 | 0.101
CC(C)(C)[C@H](NC(=O)C(F)(F)C(F)(F)F)C(=O)N1C[C@@H]2CCC[C@@H]2[C@H]1C(=O)NN(C[C@@H]1CCNC1=O)C(=O)[C@H](F)Cl [Example 71, N-[(1S)-1-[(3S,3aS,6aR)-3-[[[(2R)-2-chloro-2-fluoro-acetyl]-[[(3S)-2-oxopyrrolidin-3-yl]methyl]amino]carbamoyl]-3,3a,4,5,6,6a-hexahydro-1H-cyclopenta[c]pyrrole-2-carbonyl]-2,2-dimethyl-propyl]-2,2,3,3,3-pentafluoro-propanamide] | 0.007 | 0.019 | 0.01 | 0.041
CC[C@H](NC(=O)C(F)(F)F)C(=O)N1C[C@@H]2CCC[C@@H]2[C@H]1C(=O)NN(C[C@@H]1CCNC1=O)C(=O)[C@H](F)Cl [Example 72, N-[(1S)-1-[(3S,3aS,6aR)-3-[[[(2R)-2-chloro-2-fluoro-acetyl]-[[(3S)-2-oxopyrrolidin-3-yl]methyl]amino]carbamoyl]-3,3a,4,5,6,6a-hexahydro-1H-cyclopenta[c]pyrrole-2-carbonyl]propyl]-2,2,2-trifluoro-acetamide] | 0.008 | 0.023 | 0.011 | 0.058
CC[C@@H](C)[C@H](NC(=O)C(F)(F)F)C(=O)N1C[C@@H]2CCC[C@@H]2[C@H]1C(=O)NN(C[C@@H]1CCNC1=O)C(=O)[C@H](F)Cl [Example 73, N-[(1S,2R)-1-[(3S,3aS,6aR)-3-[[[(2R)-2-chloro-2-fluoro-acetyl]-[[(3S)-2-oxopyrrolidin-3-yl]methyl]amino]carbamoyl]-3,3a,4,5,6,6a-hexahydro-1H-cyclopenta[c]pyrrole-2-carbonyl]-2-methyl-butyl]-2,2,2-trifluoro-acetamide] | 0.033 | 0.04 | 0.012 | 0.11
O=C1NCC[C@H]1CN(NC(=O)[C@@H]1[C@H]2CCC[C@H]2CN1C(=O)[C@@H](NC(=O)C(F)(F)F)C1CCC1)C(=O)[C@H](F)Cl [Example 74, N-[(1S)-2-[(3S,3aS,6aR)-3-[[[(2R)-2-chloro-2-fluoro-acetyl]-[[(3S)-2-oxopyrrolidin-3-yl]methyl]amino]carbamoyl]-3,3a,4,5,6,6a-hexahydro-1H-cyclopenta[c]pyrrol-2-yl]-1-cyclobutyl-2-oxo-ethyl]-2,2,2-trifluoro-acetamide] | 0.007 | 0.117 | 0.045 | 0.358
C[C@H](NC(=O)C(F)(F)F)C(=O)N1C[C@@H]2CCC[C@@H]2[C@H]1C(=O)NN(C[C@@H]1CCNC1=O)C(=O)[C@H](F)Cl [Example 75, N-[(1S)-2-[(3S,3aS,6aR)-3-[[[(2R)-2-chloro-2-fluoro-acetyl]-[[(3S)-2-oxopyrrolidin-3-yl]methyl]amino]carbamoyl]-3,3a,4,5,6,6a-hexahydro-1H-cyclopenta[c]pyrrol-2-yl]-1-methyl-2-oxo-ethyl]-2,2,2-trifluoro-acetamide] | 0.012 | 0.033 | 0.012 | 0.083
CC[C@@H](C)[C@H](NC(=O)C(C)(F)F)C(=O)N1C[C@@H]2CCC[C@@H]2[C@H]1C(=O)NN(C[C@@H]1CCNC1=O)C(=O)[C@H](F)Cl [Example 76, N-[(1S,2R)-1-[(3S,3aS,6aR)-3-[[[(2R)-2-chloro-2-fluoro-acetyl]-[[(3S)-2-oxopyrrolidin-3-yl]methyl]amino]carbamoyl]-3,3a,4,5,6,6a-hexahydro-1H-cyclopenta[c]pyrrole-2-carbonyl]-2-methyl-butyl]-2,2-difluoro-propanamide] | 0.008 | 0.088 | 0.015 | 0.194
CCC(CC)[C@H](NC(=O)C(F)(F)F)C(=O)N1C[C@@H]2CCC[C@@H]2[C@H]1C(=O)NN(C[C@@H]1CCNC1=O)C(=O)[C@H](F)Cl [Example 77, N-[(1S)-1-[(3S,3aS,6aR)-3-[[[(2R)-2-chloro-2-fluoro-acetyl]-[[(3S)-2-oxopyrrolidin-3-yl]methyl]amino]carbamoyl]-3,3a,4,5,6,6a-hexahydro-1H-cyclopenta[c]pyrrole-2-carbonyl]-2-ethyl-butyl]-2,2,2-trifluoro-acetamide] | 0.007 | 0.028 | 0.012 | 0.069
CCC[C@H](NC(=O)C(F)(F)F)C(=O)N1C[C@@H]2CCC[C@@H]2[C@H]1C(=O)NN(C[C@@H]1CCNC1=O)C(=O)[C@H](F)Cl [Example 78, N-[(1S)-1-[(3S,3aS,6aR)-3-[[[(2R)-2-chloro-2-fluoro-acetyl]-[[(3S)-2-oxopyrrolidin-3-yl]methyl]amino]carbamoyl]-3,3a,4,5,6,6a-hexahydro-1H-cyclopenta[c]pyrrole-2-carbonyl]butyl]-2,2,2-trifluoro-acetamide] | 0.009 | 0.023 | 0.01 | 0.057
